# Tests used:
# CCRF-CEM = format: cell-based; conditions: Homo sapiens, one dose 10^-5 M, 48 h
# HL-60(TB) = format: cell-based; conditions: Homo sapiens, one dose 10^-5 M, 48 h
# K-562 = format: cell-based; conditions: Homo sapiens, K562, one dose 10^-5 M, 48 h
# MOLT-4 = format: cell-based; conditions: Homo sapiens, one dose 10^-5 M, 48 h, read-out: % growth
# RPMI-8226 = format: cell-based; conditions: Homo sapiens, one dose 10^-5 M, 48 h
# SR = format: cell-based; conditions: Homo sapiens, one dose 10^-5 M, 48 h
# A549/ATCC = format: cell-based; conditions: Homo sapiens, one dose 10^-5 M, 48 h
# EKVX = format: cell-based; conditions: Homo sapiens, one dose 10^-5 M, 48 h
# HOP-62 = format: cell-based; conditions: Homo sapiens, one dose 10^-5 M, 48 h
# HOP-92 = format: cell-based; conditions: Homo sapiens, one dose 10^-5 M, 48 h
# NCI-H226 = format: cell-based; conditions: Homo sapiens, one dose 10^-5 M, 48 h
# NCI-H23 = format: cell-based; conditions: Homo sapiens, one dose 10^-5 M, 48 h, read-out: % growth
# NCI-H460 = format: cell-based; conditions: Homo sapiens, one dose 10^-5 M, 48 h, read-out: % growth
# NCI-H522 = format: cell-based; conditions: Homo sapiens, one dose 10^-5 M, 48 h
# COLO 205 = format: cell-based; conditions: Homo sapiens, one dose 10^-5 M, 48 h
# HCC-2998 = format: cell-based; conditions: Homo sapiens, one dose 10^-5 M, 48 h
# HCT-116 = format: cell-based; conditions: Homo sapiens, one dose 10^-5 M, 48 h, read-out: % growth
# HCT-15 = format: cell-based; conditions: Homo sapiens, one dose 10^-5 M, 48 h, read-out: % growth
# HT29 = format: cell-based; conditions: Homo sapiens, HT-29, one dose 10^-5 M, 48 h
# KM12 = format: cell-based; conditions: Homo sapiens, one dose 10^-5 M, 48 h
# SW-620 = format: cell-based; conditions: Homo sapiens, one dose 10^-5 M, 48 h
# SF-268 = format: cell-based; conditions: Homo sapiens, one dose 10^-5 M, 48 h, read-out: % growth
# SF-295 = format: cell-based; conditions: Homo sapiens, one dose 10^-5 M, 48 h
# SF-539 = format: cell-based; conditions: Homo sapiens, one dose 10^-5 M, 48 h
# SNB-19 = format: cell-based; conditions: Homo sapiens, one dose 10^-5 M, 48 h, read-out: % growth
# U251 = format: cell-based; conditions: Homo sapiens, U-251, one dose 10^-5 M, 48 h
# LOX IMVI = format: cell-based; conditions: Homo sapiens, one dose 10^-5 M, 48 h, read-out: % growth
# MALME-3M = format: cell-based; conditions: Homo sapiens, one dose 10^-5 M, 48 h
# M14 = format: cell-based; conditions: Homo sapiens, one dose 10^-5 M, 48 h
# MDA-MB-435 = format: cell-based; conditions: Homo sapiens, one dose 10^-5 M, 48 h, read-out: % growth
# SK-MEL-2 = format: cell-based; conditions: Homo sapiens, one dose 10^-5 M, 48 h
# SK-MEL-28 = format: cell-based; conditions: Homo sapiens, one dose 10^-5 M, 48 h
# SK-MEL-5 = format: cell-based; conditions: Homo sapiens, one dose 10^-5 M, 48 h, read-out: % growth
# UACC-257 = format: cell-based; conditions: Homo sapiens, one dose 10^-5 M, 48 h
# UACC-62 = format: cell-based; conditions: Homo sapiens, one dose 10^-5 M, 48 h
# IGROV1 = format: cell-based; conditions: Homo sapiens, IGROV-1, one dose 10^-5 M, 48 h, read-out: % growth
# OVCAR-3 = format: cell-based; conditions: Homo sapiens, one dose 10^-5 M, 48 h
# OVCAR-4 = format: cell-based; conditions: Homo sapiens, one dose 10^-5 M, 48 h
# OVCAR-5 = format: cell-based; conditions: Homo sapiens, one dose 10^-5 M, 48 h
# OVCAR-8 = format: cell-based; conditions: Homo sapiens, one dose 10^-5 M, 48 h
# NCI/ADR-RES = format: cell-based; conditions: Homo sapiens, one dose 10^-5 M, 48 h
# SK-OV-3 = format: cell-based; conditions: Homo sapiens, one dose 10^-5 M, 48 h
# 786-0 = format: cell-based; conditions: Homo sapiens, one dose 10^-5 M, 48 h
# A498 = format: cell-based; conditions: Homo sapiens, one dose 10^-5 M, 48 h
# ACHN = format: cell-based; conditions: Homo sapiens, one dose 10^-5 M, 48 h
# CAKI-1 = format: cell-based; conditions: Homo sapiens, CAKI-1, 48 h, one dose 10^-5 M, 48 h
# RXF 393 = format: cell-based; conditions: Homo sapiens, RXF 393, 48 h, one dose 10^-5 M, 48 h, read-out: % growth
# SN12C = format: cell-based, human; conditions: Homo sapiens, one dose 10^-5 M, 48 h
# TK-10 = format: cell-based; conditions: Homo sapiens, one dose 10^-5 M, 48 h
# UO-31 = format: cell-based; conditions: Homo sapiens, UO-31, 48 h, one dose 10^-5 M, 48 h
# PC-3 = format: cell-based; conditions: Homo sapiens, one dose 10^-5 M, 48 h
# DU-145 = format: cell-based; conditions: Homo sapiens, one dose 10^-5 M, 48 h
# MCF7 = format: cell-based; conditions: Homo sapiens, one dose 10^-5 M, 48 h, read-out: % growth
# MDA-MB-231/ATCC = format: cell-based; conditions: Homo sapiens, one dose 10^-5 M, 48 h
# HS 578T = format: cell-based; conditions: Homo sapiens; one dose 10^-5 M, 48 h; HS 578T; read-out: % growth
# BT-549 = format: cell-based; conditions: Homo sapiens, one dose 10^-5 M, 48 h
# T-47D = format: cell-based; conditions: Homo sapiens, T47D, one dose 10^-5 M, 48 h, read-out: % growth
# MDA-MB-468 = format: cell-based; conditions: Homo sapiens, one dose 10^-5 M, 48 h
# [1] = system: full NCI 60 cell lines panel; conditions: for activity at 10 µM: Homo sapiens, 60 cell, 48 h, read-out: Mean % growth
compound,measurement,setting,value
"CN(C)c1ccc(-c2nc(S)nc(N)c2-c2ncn[nH]2)cc1 [Compound 5a, 4-Aamino-6-[4-(dimethylamino)phenyl]-5-(1H-1,2,4-triazol-5-yl)pyrimidine-2-thiol]",% cell growth at 10 µM,CCRF-CEM,103%
same,% growth at 10 µM,HL-60(TB),84.4%
same,% growth at 10 µM,K-562,89.8%
same,activity at 10 µM,MOLT-4,100%
same,% growth at 10 µM,RPMI-8226,109%
same,percent cell growth at 10 µM,SR,85.7%
same,% growth at 10 µM,A549/ATCC,108%
same,% cell growth at 10 µM,EKVX,121%
same,% growth at 10 µM,HOP-62,103%
same,% growth at 10 µM,HOP-92,100%
same,% growth at 10 µM,NCI-H226,110%
same,activity at 10 µM,NCI-H23,108%
same,activity at 10 µM,NCI-H460,111%
same,% growth at 10 µM,NCI-H522,101%
same,% growth at 10 µM,COLO 205,116%
same,% growth at 10 µM,HCC-2998,112%
same,activity at 10 µM,HCT-116,102%
same,activity at 10 µM,HCT-15,116%
same,% growth at 10 µM,HT29,111%
same,% growth at 10 µM,KM12,105%
same,% growth at 10 µM,SW-620,106%
same,activity at 10 µM,SF-268,107%
same,% cell growth at 10 µM,SF-295,104%
same,% growth at 10 µM,SF-539,108%
same,activity at 10 µM,SNB-19,102%
same,% growth at 10 µM,U251,111%
same,activity at 10 µM,LOX IMVI,109%
same,% growth at 10 µM,MALME-3M,96.7%
same,% growth at 10 µM,M14,105%
same,activity at 10 µM,MDA-MB-435,113%
same,% growth at 10 µM,SK-MEL-2,116%
same,% cell growth at 10 µM,SK-MEL-28,119%
same,activity at 10 µM,SK-MEL-5,108%
same,percent cell growth at 10 µM,UACC-257,113%
same,% growth at 10 µM,UACC-62,102%
same,activity at 10 µM,IGROV1,109%
same,% growth at 10 µM,OVCAR-3,111%
same,% growth at 10 µM,OVCAR-4,115%
same,percent cell growth at 10 µM,OVCAR-5,120%
same,% growth of cells at 10 µM,OVCAR-8,113%
same,cell growth percent at 10 µM,NCI/ADR-RES,115%
same,% growth at 10 µM,SK-OV-3,103%
same,% growth at 10 µM,786-0,96.3%
same,% growth at 10 µM,A498,131%
same,% growth at 10 µM,ACHN,119%
same,% growth at 10 µM,CAKI-1,89.7%
same,activity at 10 µM,RXF 393,113%
same,% growth at 10 µM,SN12C,106%
same,% cell growth at 10 µM,TK-10,117%
same,% cell growth at 10 µM,UO-31,93.9%
same,percent cell growth at 10 µM,PC-3,102%
same,% growth at 10 µM,DU-145,115%
same,activity at 10 µM,MCF7,96.6%
same,% growth at 10 µM,MDA-MB-231/ATCC,107%
same,activity at 10 µM,HS 578T,113%
same,% cell growth at 10 µM,BT-549,98.1%
same,activity at 10 µM,T-47D,109%
same,percent cell growth at 10 µM,MDA-MB-468,110%
same,activity at 10 µM,[1],107%
same,activity on all 60 cancer cell lines tested (in words),[1]; one dose,weak activity
"Nc1nc(S)nc(-c2ccc(Cl)cc2Cl)c1-c1ncn[nH]1 [Compound 5c, 4-Amino-6–(2,4-dichlorophenyl)-5-(1H-1,2,4-triazol-5-yl)pyrimidine-2-thiol]",% cell growth at 10 µM,CCRF-CEM,92.7%
same,% growth at 10 µM,HL-60(TB),70.9%
same,% growth at 10 µM,K-562,98%
same,activity at 10 µM,MOLT-4,91.4%
same,% growth at 10 µM,RPMI-8226,103%
same,percent cell growth at 10 µM,SR,83.2%
same,% growth at 10 µM,A549/ATCC,102%
same,% cell growth at 10 µM,EKVX,50%
same,% growth at 10 µM,HOP-62,93.9%
same,% growth at 10 µM,HOP-92,106%
same,% growth at 10 µM,NCI-H226,110%
same,activity at 10 µM,NCI-H23,105%
same,activity at 10 µM,NCI-H460,108%
same,% growth at 10 µM,NCI-H522,88.8%
same,% growth at 10 µM,COLO 205,104%
same,% growth at 10 µM,HCC-2998,105%
same,activity at 10 µM,HCT-116,97.8%
same,activity at 10 µM,HCT-15,102%
same,% growth at 10 µM,HT29,102%
same,% growth at 10 µM,KM12,103%
same,% growth at 10 µM,SW-620,102%
same,activity at 10 µM,SF-268,101%
same,% cell growth at 10 µM,SF-295,100%
same,% growth at 10 µM,SF-539,101%
same,activity at 10 µM,SNB-19,97.1%
same,% growth at 10 µM,U251,105%
same,activity at 10 µM,LOX IMVI,104%
same,% growth at 10 µM,MALME-3M,98.2%
same,% growth at 10 µM,M14,98.7%
same,activity at 10 µM,MDA-MB-435,105%
same,% growth at 10 µM,SK-MEL-2,104%
same,% cell growth at 10 µM,SK-MEL-28,115%
same,activity at 10 µM,SK-MEL-5,94.8%
same,percent cell growth at 10 µM,UACC-257,112%
same,% growth at 10 µM,UACC-62,95.3%
same,activity at 10 µM,IGROV1,102%
same,% growth at 10 µM,OVCAR-3,109%
same,% growth at 10 µM,OVCAR-4,105%
same,percent cell growth at 10 µM,OVCAR-5,107%
same,% growth of cells at 10 µM,OVCAR-8,103%
same,cell growth percent at 10 µM,NCI/ADR-RES,106%
same,% growth at 10 µM,SK-OV-3,94.2%
same,% growth at 10 µM,786-0,90.7%
same,% growth at 10 µM,A498,120%
same,% growth at 10 µM,ACHN,109%
same,% growth at 10 µM,CAKI-1,90.8%
same,activity at 10 µM,RXF 393,110%
same,% growth at 10 µM,SN12C,107%
same,% cell growth at 10 µM,TK-10,114%
same,% cell growth at 10 µM,UO-31,89.9%
same,percent cell growth at 10 µM,PC-3,95.8%
same,% growth at 10 µM,DU-145,112%
same,activity at 10 µM,MCF7,94.1%
same,% growth at 10 µM,MDA-MB-231/ATCC,104%
same,activity at 10 µM,HS 578T,98.6%
same,% cell growth at 10 µM,BT-549,97.3%
same,activity at 10 µM,T-47D,106%
same,percent cell growth at 10 µM,MDA-MB-468,104%
same,activity at 10 µM,[1],100%
